Data as given in patent US20230000870A1, “METHODS OF TREATING CANCER IN BIOMARKER-IDENTIFIED PATIENTS WITH INHIBITORS OF CYCLIN-DEPENDENT KINASE 7 (CDK7)” (Syros Pharmaceuticals, Inc., priority 2019, published 2023).

What was measured:
[1] = target: CDK2/Cyclin E1 complex (Homo sapiens, UniProt P24941); assay: CDK2 kinase inhibition assay (Caliper/LabChip EZ Reader); assay type: biochemical; settings: CDK2/Cyclin E1 0.5 nM, ATP 2 mM, 35 min at 27° C.
Description: (§1) Compounds of the invention were assayed for inhibition of CDK7, CDK9, CDK12, and CDK2 activity at Biortus Biosciences (Jiangyin, Jiangsu Province, P.R. of China) using kinase assays for each CDK developed with a Caliper/LabChip EZ Reader (Perkin Elmer, Waltham, Mass.).
(§2) Furthermore, the CDK9 inhibition assay used CDK9/Cyclin T1 complex (8 nM) and “5-FAM-CDK9tide” peptide substrate (2 μM, synthesized fluorophore-labeled peptide with the following sequence: 5-FAM-GSRTPMY-NH2 where 5-FAM is defined above and NH2 signifies a C-terminal amide) with 10 mM MgCl2 in the buffer composition listed above. The CDK12 inhibition assay used CDK12 (aa686-1082)/Cyclin K complex (50 nM) and “5-FAM-CDK9tide” (2 μM) as defined above, with 2 mM MgCl2 in the buffer composition above. Additionally, the CDK2 inhibition assay used CDK2/Cyclin E1 complex (0.5 nM) and “5-FAM-CDK7tide” (2 μM) as defined above, with 2 mM MgCl2 in the buffer composition listed above.
(§3) The incubation period at 27° C. for each CDK inhibition assay was chosen such that the fraction of phosphorylated peptide product produced in each assay, relative to the total peptide concentration, was approximately 20% (±5%) for the uninhibited kinase (35 min. for CDK7, 35 min. for CDK2, 3 hr. for CDK12, 15 min. for CDK9).

[2] = target: CDK7/Cyclin H/MAT1 complex (Homo sapiens, UniProt P50613); assay: CDK7 kinase inhibition assay (Caliper/LabChip EZ Reader); assay type: biochemical; settings: CDK7/Cyclin H/MAT1 6 nM, ATP 2 mM, 35 min at 27° C.
Description: as §1, §2, §3

[3] = tested on: A673 cells; assay: Inhibition of proliferation of A673 cells (CyQUANT, 72 hour); assay type: cell-based, human; settings: read-out: Inhibition of Proliferation of A673 Cells (calculated IC50)
Description: A673 Cells: A673 cells are a cell line derived from human muscle Ewing's sarcoma. Representative compounds of the invention were tested at different concentrations (from 4 μM to […]; 0.5 log serial dilutions) for their ability to inhibit the proliferation of A673 cells. Known CDK inhibitors dinaciclib or N-((1S,3R)-3-((5-chloro-4-(1H-indol-3-yl)pyrimidin-2-yl)amino)cyclohexyl)-5-((E)-4-(dimethylamino)but-2-enamido)picolinamide and triptolide were used as positive controls. Cells were grown in Dulbecco's Modified Eagle's Medium, +10% FBS+1 mM Sodium Pyruvate. The cells were cultured at 37° C. in a humidified chamber in the presence of 5% CO2. Proliferation assays were conducted over a 72 hour time period. CyQUANT® (Life Technologies, Chicago, Ill. USA) was used to assess the anti-proliferative effects of the compounds following manufacturer's directions and utilizing the reagents supplied with the CyQUANT® kit.

[4] = target: T1, CDK12 (aa686-1082)/Cyclin K complex (Homo sapiens, UniProt Q9NYV4); assay: CDK12 kinase inhibition assay (Caliper/LabChip EZ Reader); assay type: biochemical; settings: CDK12 (aa686-1082)/Cyclin K 50 nM, ATP 2 mM, 3 hr at 27° C.
T1 construct: CDK12 (aa686-1082)/Cyclin K complex
Description: as §1, §2, §3

[5] = target: CDK9/Cyclin T1 complex (Homo sapiens, UniProt P50750); assay: CDK9 kinase inhibition assay (Caliper/LabChip EZ Reader); assay type: biochemical; settings: CDK9/Cyclin T1 8 nM, ATP 2 mM, 15 min at 27° C.
Description: as §1, §2, §3

Chain of CDK7/Cyclin H/MAT1 complex (P50613 whole entry): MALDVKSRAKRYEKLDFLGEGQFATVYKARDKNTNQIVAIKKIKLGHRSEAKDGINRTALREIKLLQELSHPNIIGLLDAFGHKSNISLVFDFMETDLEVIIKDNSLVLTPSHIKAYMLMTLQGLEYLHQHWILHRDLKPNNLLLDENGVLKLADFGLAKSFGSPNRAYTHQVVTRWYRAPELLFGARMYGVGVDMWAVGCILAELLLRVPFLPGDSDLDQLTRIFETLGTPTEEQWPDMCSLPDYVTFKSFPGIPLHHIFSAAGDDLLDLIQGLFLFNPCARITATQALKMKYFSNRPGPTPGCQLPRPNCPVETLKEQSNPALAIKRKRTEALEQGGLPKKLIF
Chain of CDK7/Cyclin H/MAT1 complex (P51946 whole entry partner): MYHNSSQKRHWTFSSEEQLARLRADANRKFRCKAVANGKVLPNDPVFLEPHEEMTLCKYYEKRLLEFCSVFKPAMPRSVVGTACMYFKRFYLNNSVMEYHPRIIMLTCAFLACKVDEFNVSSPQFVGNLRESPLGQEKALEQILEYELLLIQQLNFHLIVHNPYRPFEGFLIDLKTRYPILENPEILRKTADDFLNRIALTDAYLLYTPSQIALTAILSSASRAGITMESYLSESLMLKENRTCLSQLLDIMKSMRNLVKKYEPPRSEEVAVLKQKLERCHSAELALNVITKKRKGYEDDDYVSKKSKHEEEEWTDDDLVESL
Chain of CDK7/Cyclin H/MAT1 complex (P51948 whole entry partner): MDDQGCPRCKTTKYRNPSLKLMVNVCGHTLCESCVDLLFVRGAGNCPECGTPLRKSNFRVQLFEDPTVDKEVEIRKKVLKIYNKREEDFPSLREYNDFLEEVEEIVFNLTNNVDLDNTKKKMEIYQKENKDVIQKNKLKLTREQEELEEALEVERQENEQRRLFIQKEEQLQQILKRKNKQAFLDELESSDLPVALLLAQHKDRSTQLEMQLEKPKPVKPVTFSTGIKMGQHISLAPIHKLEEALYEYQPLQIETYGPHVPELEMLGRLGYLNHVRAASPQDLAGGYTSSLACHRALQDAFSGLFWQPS
T1 sequence (Q9NYV4 686-1082): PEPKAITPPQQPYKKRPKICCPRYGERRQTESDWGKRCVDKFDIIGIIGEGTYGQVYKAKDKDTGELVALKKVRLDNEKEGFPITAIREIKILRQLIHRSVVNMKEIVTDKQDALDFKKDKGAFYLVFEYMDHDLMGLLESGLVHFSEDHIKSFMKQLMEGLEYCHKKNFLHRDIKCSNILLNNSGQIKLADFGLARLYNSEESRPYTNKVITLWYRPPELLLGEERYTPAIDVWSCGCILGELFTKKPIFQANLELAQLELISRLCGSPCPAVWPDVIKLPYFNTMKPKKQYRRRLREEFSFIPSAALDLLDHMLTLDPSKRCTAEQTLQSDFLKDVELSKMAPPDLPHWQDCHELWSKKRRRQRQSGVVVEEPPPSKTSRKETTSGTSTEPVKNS
T1 sequence (O75909 whole entry partner, the tested form may be a part): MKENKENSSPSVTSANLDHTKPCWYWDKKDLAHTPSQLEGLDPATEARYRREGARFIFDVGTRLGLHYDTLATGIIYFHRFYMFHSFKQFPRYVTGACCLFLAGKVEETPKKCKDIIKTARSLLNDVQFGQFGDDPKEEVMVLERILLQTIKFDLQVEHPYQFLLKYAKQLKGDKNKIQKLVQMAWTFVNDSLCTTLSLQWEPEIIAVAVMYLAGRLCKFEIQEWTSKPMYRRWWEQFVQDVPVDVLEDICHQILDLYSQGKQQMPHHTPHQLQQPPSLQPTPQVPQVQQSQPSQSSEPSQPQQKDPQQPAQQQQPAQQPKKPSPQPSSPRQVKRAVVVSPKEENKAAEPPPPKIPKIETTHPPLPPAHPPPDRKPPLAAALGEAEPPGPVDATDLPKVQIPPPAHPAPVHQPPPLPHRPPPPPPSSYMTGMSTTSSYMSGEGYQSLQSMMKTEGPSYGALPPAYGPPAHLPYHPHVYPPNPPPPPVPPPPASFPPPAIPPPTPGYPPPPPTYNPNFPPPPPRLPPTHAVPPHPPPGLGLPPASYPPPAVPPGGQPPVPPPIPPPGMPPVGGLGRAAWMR
Chain of CDK9/Cyclin T1 complex (P50750 whole entry): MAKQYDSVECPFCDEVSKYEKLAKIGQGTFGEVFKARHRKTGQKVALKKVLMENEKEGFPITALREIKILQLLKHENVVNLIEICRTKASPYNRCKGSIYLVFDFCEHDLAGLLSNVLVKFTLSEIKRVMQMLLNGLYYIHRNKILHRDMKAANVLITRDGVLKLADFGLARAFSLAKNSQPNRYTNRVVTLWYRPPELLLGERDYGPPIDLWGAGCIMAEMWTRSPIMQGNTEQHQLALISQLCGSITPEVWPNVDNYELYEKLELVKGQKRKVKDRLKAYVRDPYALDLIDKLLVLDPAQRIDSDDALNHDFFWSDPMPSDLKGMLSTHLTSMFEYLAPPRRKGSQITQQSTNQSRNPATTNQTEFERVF
Chain of CDK9/Cyclin T1 complex (O60563 whole entry partner): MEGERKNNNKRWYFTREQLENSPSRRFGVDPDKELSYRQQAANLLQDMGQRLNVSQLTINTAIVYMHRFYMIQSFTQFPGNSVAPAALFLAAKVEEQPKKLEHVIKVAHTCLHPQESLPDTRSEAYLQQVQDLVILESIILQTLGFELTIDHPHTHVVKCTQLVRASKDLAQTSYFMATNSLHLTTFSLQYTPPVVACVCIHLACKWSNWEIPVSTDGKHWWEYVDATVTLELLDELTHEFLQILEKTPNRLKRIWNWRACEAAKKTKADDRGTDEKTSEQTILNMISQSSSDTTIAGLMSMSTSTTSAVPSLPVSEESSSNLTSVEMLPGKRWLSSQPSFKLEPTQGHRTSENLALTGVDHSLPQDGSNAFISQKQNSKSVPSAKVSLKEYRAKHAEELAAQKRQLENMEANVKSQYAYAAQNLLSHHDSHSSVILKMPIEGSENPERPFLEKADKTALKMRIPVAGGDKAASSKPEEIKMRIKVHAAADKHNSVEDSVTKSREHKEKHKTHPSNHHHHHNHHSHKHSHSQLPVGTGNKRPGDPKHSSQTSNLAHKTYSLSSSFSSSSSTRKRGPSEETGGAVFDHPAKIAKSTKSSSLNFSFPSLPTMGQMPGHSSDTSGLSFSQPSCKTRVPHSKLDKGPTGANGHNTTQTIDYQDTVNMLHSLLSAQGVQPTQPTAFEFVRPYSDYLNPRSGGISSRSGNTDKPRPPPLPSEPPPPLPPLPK

| Compound | IC50 [1] [nM] | IC50 [2] [nM] | IC50 [3] [nM] | IC50 [4] [nM] | IC50 [5] [nM] |
| --- | --- | --- | --- | --- | --- |
| Brc1cnc(N[C@@H]2CCCNC2)nc1-c1c[nH]c2ccccc12 [Compound 133] | 20 to 200 | < 20 | < 20 | 20 to 200 | 200 to 5000 |
| CNS(=O)(=O)c1ccc2c(-c3nc(N[C@H]4CCCNC4)ncc3C(F)(F)F)c[nH]c2c1 [Compound 200] | 200 to 5000 | < 20 | 20 to 200 | 200 to 5000 | 200 to 5000 |
| FC(F)(F)c1cnc(NC2CNCC(c3nnc4ccccn34)C2)nc1-c1c[nH]c2ccccc12 (stereo not drawn) [Compound 268] | – | – | 200 to 5000 | – | – |
| FC(F)(F)c1cnc(NC2CNCc3ccccc32)nc1-c1c[nH]c2ccccc12 (stereo not drawn) [Compound 216] | 200 to 5000 | 200 to 5000 | 200 to 5000 | ≥ 5000 | ≥ 5000 |
| CS(=O)(=O)c1cccn2c(C3CNCC(Nc4ncc(C(F)(F)F)c(-c5c[nH]c6ccccc56)n4)C3)nnc12 (stereo not drawn) [Compound 265] | 200 to 5000 | 200 to 5000 | 20 to 200 | 200 to 5000 | 200 to 5000 |
| CC(O)c1cnc(NC2CCCNC2)nc1-c1c[nH]c2ccccc12 (stereo not drawn) [Compound 234] | ≥ 5000 | 200 to 5000 | < 20 | ≥ 5000 | ≥ 5000 |
| CCc1cnc(NC2CCCNC2)nc1-c1n[nH]c2ccc(C)cc12 (stereo not drawn) [Compound 120] | ≥ 5000 | 200 to 5000 | – | 200 to 5000 | ≥ 5000 |
| CC(C)C1CC[C@H](Nc2ncc(C(F)(F)F)c(-c3c[nH]c4ccccc34)n2)CN1 (stereo partly drawn) [Compound 257] | ≥ 5000 | 20 to 200 | 200 to 5000 | ≥ 5000 | ≥ 5000 |
| FC(F)(F)c1cnc(NC2CNCC(c3nnc4ccccn34)C2)nc1-c1c[nH]c2ccccc12 (stereo not drawn) [Compound 266] | 200 to 5000 | 20 to 200 | 20 to 200 | 200 to 5000 | 200 to 5000 |
| CCS(=O)(=O)c1ccc2c(-c3nc(NC4CCCNC4)ncc3C(F)(F)F)c[nH]c2c1 (stereo not drawn) [Compound 274] | 200 to 5000 | < 20 | 20 to 200 | 200 to 5000 | 200 to 5000 |
| CNC(=O)C1CNCC(Nc2ncc(C(F)(F)F)c(-c3c[nH]c4ccccc34)n2)C1 (stereo not drawn) [Compound 252] | 200 to 5000 | 20 to 200 | 200 to 5000 | ≥ 5000 | ≥ 5000 |
| COCCN1CCCC(Nc2ncc(Cl)c(-c3c[nH]c4ccccc34)n2)C1 (stereo not drawn) [Compound 149] | 200 to 5000 | 20 to 200 | 20 to 200 | 200 to 5000 | 200 to 5000 |
| O=C(C1CCC(Nc2ncc(C(F)(F)F)c(-c3c[nH]c4ccccc34)n2)CN1)N1CCCC1 (stereo not drawn) [Compound 228] | 200 to 5000 | < 20 | 20 to 200 | 200 to 5000 | 200 to 5000 |
| Cc1c(-c2ccc3c(-c4nc(NC5CCCNC5)ncc4C(F)(F)F)c[nH]c3c2)cnn1C (stereo not drawn) [Compound 227] | 200 to 5000 | < 20 | 20 to 200 | 200 to 5000 | 200 to 5000 |
| CCOP(C)(=O)c1cccc2c(-c3nc(NC4CCCNC4)ncc3C(F)(F)F)c[nH]c12 (stereo not drawn) [Compound 179] | 200 to 5000 | < 20 | < 20 | 200 to 5000 | 200 to 5000 |
| CCc1cnc(NC2CCCNC2)nc1-c1n[nH]c2ccccc12 (stereo not drawn) [Compound 110] | 200 to 5000 | 20 to 200 | 20 to 200 | 200 to 5000 | 200 to 5000 |
| COc1cnc(N[C@H]2CCCNC2)nc1-c1c[nH]c2ccccc12 [Compound 189] | ≥ 5000 | 200 to 5000 | 200 to 5000 | ≥ 5000 | ≥ 5000 |
| FC(F)(F)c1cnc(N[C@@H]2CNCc3ccccc32)nc1-c1c[nH]c2ccccc12 [Compound 215] | ≥ 5000 | 20 to 200 | 200 to 5000 | ≥ 5000 | ≥ 5000 |
| FC(F)(F)c1cnc(NC2CCC3(CC3)NC2)nc1-c1c[nH]c2ccccc12 (stereo not drawn) [Compound 212] | 200 to 5000 | < 20 | < 20 | 200 to 5000 | 200 to 5000 |
